{"source": "patent US10878939B2", "about": "“Methods and compositions for personalized pain management” (Children's Hospital Medical Center, priority 2014, dated 2020)", "key": {"[1]": {"system": "children undergoing tonsillectomy", "experiment": "Analgesic effectiveness outcomes by sex and morphine dose (Example 6)"}, "[2]": {"system": "children undergoing tonsillectomy", "experiment": "Postoperative analgesia measurements by ABCB1 genotype (Example 7)", "details": "263 patients", "procedure": "All participants received standard perioperative care. Anesthesia was induced using sevoflurane followed by a propofol (2 mg/kg) bolus to facilitate endotracheal intubation. Anesthesia was maintained with sevoflurane without the use of neuromuscular blockade. […] All children receive prophylactic ondansetron (0.1 mg/kg) and dexamethasone (0.1 mg/kg) intraoperatively.\nBlood was collected from each participant in the operating room under anesthesia and the DNA was isolated the same day and stored at −20 degree Celsius. Batched genotyping was performed after clinical data was entered on all study participants. The TaqMan allelic discrimination system assays and Genotyper Softerware Version 1.0.1 (Life Technologies, Applied Biosystems, Forest City, Calif.) were used to analyse and report the following ABCB1 polymorphisms: rs1045642, rs2032582, rs1128503, rs2229109, and rs9282564.\nPrior to analysis, data qualities were examined. For the ABCB1 variants, allelic and genotype frequencies were assessed in white and black patients separately, and Hardy Weinberg equilibrium (HWE) was tested. To analyze binary outcomes (RD, prolonged PACU secondary to RD and analgesic intervention need), logistic regression was performed. […] Thus, maximum FLACC scores were analyzed using a zero-inflated negative binomial model to appropriately capture the distribution of this variable. […] To select the best fitting model, log likelihood, Akaike and Bayesian Information criterion were compared, and residuals were examined. […] To assess the single SNP association with the outcomes, additive models were used, in which the genotypes were recoded and tested as continuous variables. For the four bi-allelic SNPs, genotypes were recoded to 0, 1 and 2 according to the number of minor alleles. For rs2032582, GG genotype was recoded as 0; GA and GT genotypes were combined and recoded as 1, and TT and TA genotypes as 2. Statistical modeling was conducted with white and black patients separately and combined. When races were combined, the effects of race and race*SNP interaction were tested."}, "[3]": {"details": "F, intra-op morphine >0.2 mg/kg"}, "[4]": {"details": "F, intra-op morphine >0.1-0.2 mg/kg"}, "[5]": {"details": "F, intra-op morphine ≤0.1 mg/kg"}, "[6]": {"details": "M, intra-op morphine >0.2 mg/kg"}, "[7]": {"details": "M, intra-op morphine >0.1-0.2 mg/kg"}, "[8]": {"details": "M, intra-op morphine ≤0.1 mg/kg"}}}
{"compound": "CN1CC[C@]23c4c5ccc(O)c4O[C@H]2[C@@H](O)C=C[C@H]3[C@H]1C5", "note": "[morphine]", "values": [{"measurement": "Analgesic intervention need in PACU, number of cases", "setting": "[1]; F, All", "value": 67}, {"measurement": "Analgesic intervention need in PACU, proportion", "setting": "[1]; F, All", "value": "(31%)"}, {"measurement": "Maximum FLACC pain score, median", "setting": "[1]; F, All", "value": 2}, {"measurement": "Maximum NRS pain score, median", "setting": "[1]; F, All", "value": 6}, {"measurement": "Number of analgesic interventions, median", "setting": "[1]; F, All", "value": 1}, {"measurement": "Post-operative morphine, mean ± SD", "setting": "[1]; F, All", "value": "0.09 ± 0.05", "unit": "mg/kg"}, {"measurement": "Prolonged PACU stay due to pain, number of cases", "setting": "[1]; F, All", "value": 37}, {"measurement": "Prolonged PACU stay due to pain, proportion", "setting": "[1]; F, All", "value": "(17%)"}, {"measurement": "Analgesic intervention need in PACU, number of cases", "setting": "[1]; F, OSA No", "value": 35}, {"measurement": "Analgesic intervention need in PACU, proportion", "setting": "[1]; F, OSA No", "value": "(28%)"}, {"measurement": "Maximum FLACC pain score, median", "setting": "[1]; F, OSA No", "value": 2}, {"measurement": "Maximum NRS pain score, median", "setting": "[1]; F, OSA No", "value": 6}, {"measurement": "Number of analgesic interventions, median", "setting": "[1]; F, OSA No", "value": 1}, {"measurement": "Post-operative morphine, mean ± SD", "setting": "[1]; F, OSA No", "value": "0.08 ± 0.04", "unit": "mg/kg"}, {"measurement": "Prolonged PACU stay due to pain, number of cases", "setting": "[1]; F, OSA No", "value": 21}, {"measurement": "Prolonged PACU stay due to pain, proportion", "setting": "[1]; F, OSA No", "value": "(17%)"}, {"measurement": "Analgesic intervention need in PACU, number of cases", "setting": "[1]; F, OSA Yes", "value": 32}, {"measurement": "Analgesic intervention need in PACU, proportion", "setting": "[1]; F, OSA Yes", "value": "(34%)"}, {"measurement": "Maximum FLACC pain score, median", "setting": "[1]; F, OSA Yes", "value": 2}, {"measurement": "Maximum NRS pain score, median", "setting": "[1]; F, OSA Yes", "value": 5}, {"measurement": "Number of analgesic interventions, median", "setting": "[1]; F, OSA Yes", "value": 1}, {"measurement": "Post-operative morphine, mean ± SD", "setting": "[1]; F, OSA Yes", "value": "0.09 ± 0.06", "unit": "mg/kg"}, {"measurement": "Prolonged PACU stay due to pain, number of cases", "setting": "[1]; F, OSA Yes", "value": 16}, {"measurement": "Prolonged PACU stay due to pain, proportion", "setting": "[1]; F, OSA Yes", "value": "(17%)"}, {"measurement": "Analgesic intervention need in PACU, number of cases (%)", "setting": "[1]; [3]", "value": "22 (51)"}, {"measurement": "Maximum FLACC pain score, median (IQR)", "setting": "[1]; [3]", "value": "1 (0-5)"}, {"measurement": "Maximum NRS pain score, median (IQR)", "setting": "[1]; [3]", "value": "6 (3-9)"}, {"measurement": "Number of analgesic interventions, median (IQR)", "setting": "[1]; [3]", "value": "1 (0-1)"}, {"measurement": "Post-operative morphine, mean ± SD", "setting": "[1]; [3]", "value": "0.10 ± 0.05", "unit": "mg/Kf"}, {"measurement": "Prolonged PACU stay due to pain, number of cases (%)", "setting": "[1]; [3]", "value": "12 (28)"}, {"measurement": "Analgesic intervention need in PACU, number of cases (%)", "setting": "[1]; [4]", "value": "40 (61)"}, {"measurement": "Maximum FLACC pain score, median (IQR)", "setting": "[1]; [4]", "value": "2 (0-5)"}, {"measurement": "Maximum NRS pain score, median (IQR)", "setting": "[1]; [4]", "value": "5 (2-8)"}, {"measurement": "Number of analgesic interventions, median (IQR)", "setting": "[1]; [4]", "value": "1 (0-1)"}, {"measurement": "Post-operative morphine, mean ± SD", "setting": "[1]; [4]", "value": "0.09 ± 0.05", "unit": "mg/Kf"}, {"measurement": "Prolonged PACU stay due to pain, number of cases (%)", "setting": "[1]; [4]", "value": "22 (33)"}, {"measurement": "Analgesic intervention need in PACU, number of cases (%)", "setting": "[1]; [5]", "value": "5 (100)"}, {"measurement": "Maximum FLACC pain score, median (IQR)", "setting": "[1]; [5]", "value": "3 (3-4)"}, {"measurement": "Maximum NRS pain score, median (IQR)", "setting": "[1]; [5]", "value": "8 (6-10)"}, {"measurement": "Number of analgesic interventions, median (IQR)", "setting": "[1]; [5]", "value": "1 (1-2)"}, {"measurement": "Post-operative morphine, mean ± SD", "setting": "[1]; [5]", "value": "0.07 ± 0.03", "unit": "mg/Kf"}, {"measurement": "Prolonged PACU stay due to pain, number of cases (%)", "setting": "[1]; [5]", "value": "3 (60)"}, {"measurement": "Analgesic intervention need in PACU, number of cases", "setting": "[1]; M, All", "value": 61}, {"measurement": "Analgesic intervention need in PACU, proportion", "setting": "[1]; M, All", "value": "(28%)"}, {"measurement": "Maximum FLACC pain score, median", "setting": "[1]; M, All", "value": 2}, {"measurement": "Maximum NRS pain score, median", "setting": "[1]; M, All", "value": 5}, {"measurement": "Number of analgesic interventions, median", "setting": "[1]; M, All", "value": 1}, {"measurement": "Post-operative morphine, mean ± SD", "setting": "[1]; M, All", "value": "0.09 ± 0.05", "unit": "mg/kg"}, {"measurement": "Prolonged PACU stay due to pain, number of cases", "setting": "[1]; M, All", "value": 36}, {"measurement": "Prolonged PACU stay due to pain, proportion", "setting": "[1]; M, All", "value": "(16%)"}, {"measurement": "Analgesic intervention need in PACU, number of cases", "setting": "[1]; M, OSA No", "value": 35}, {"measurement": "Analgesic intervention need in PACU, proportion", "setting": "[1]; M, OSA No", "value": "(28%)"}, {"measurement": "Maximum FLACC pain score, median", "setting": "[1]; M, OSA No", "value": 2}, {"measurement": "Maximum NRS pain score, median", "setting": "[1]; M, OSA No", "value": 6}, {"measurement": "Number of analgesic interventions, median", "setting": "[1]; M, OSA No", "value": 1}, {"measurement": "Post-operative morphine, mean ± SD", "setting": "[1]; M, OSA No", "value": "0.09 ± 0.05", "unit": "mg/kg"}, {"measurement": "Prolonged PACU stay due to pain, number of cases", "setting": "[1]; M, OSA No", "value": 24}, {"measurement": "Prolonged PACU stay due to pain, proportion", "setting": "[1]; M, OSA No", "value": "(19%)"}, {"measurement": "Analgesic intervention need in PACU, number of cases", "setting": "[1]; M, OSA Yes", "value": 26}, {"measurement": "Analgesic intervention need in PACU, proportion", "setting": "[1]; M, OSA Yes", "value": "(27%)"}, {"measurement": "Maximum FLACC pain score, median", "setting": "[1]; M, OSA Yes", "value": 4}, {"measurement": "Maximum NRS pain score, median", "setting": "[1]; M, OSA Yes", "value": 5}, {"measurement": "Number of analgesic interventions, median", "setting": "[1]; M, OSA Yes", "value": 1}, {"measurement": "Post-operative morphine, mean ± SD", "setting": "[1]; M, OSA Yes", "value": "0.09 ± 0.05", "unit": "mg/kg"}, {"measurement": "Prolonged PACU stay due to pain, number of cases", "setting": "[1]; M, OSA Yes", "value": 12}, {"measurement": "Prolonged PACU stay due to pain, proportion", "setting": "[1]; M, OSA Yes", "value": "(13%)"}, {"measurement": "Analgesic intervention need in PACU, number of cases (%)", "setting": "[1]; [6]", "value": "20 (54)"}, {"measurement": "Maximum FLACC pain score, median (IQR)", "setting": "[1]; [6]", "value": "2 (0-5)"}, {"measurement": "Maximum NRS pain score, median (IQR)", "setting": "[1]; [6]", "value": "6 (4-7)"}, {"measurement": "Number of analgesic interventions, median (IQR)", "setting": "[1]; [6]", "value": "1 (0-1)"}, {"measurement": "Post-operative morphine, mean ± SD", "setting": "[1]; [6]", "value": "0.09 ± 0.05", "unit": "mg/Kf"}, {"measurement": "Prolonged PACU stay due to pain, number of cases (%)", "setting": "[1]; [6]", "value": "12 (32)"}, {"measurement": "Analgesic intervention need in PACU, number of cases (%)", "setting": "[1]; [7]", "value": "36 (58)"}, {"measurement": "Maximum FLACC pain score, median (IQR)", "setting": "[1]; [7]", "value": "3 (1-7)"}, {"measurement": "Maximum NRS pain score, median (IQR)", "setting": "[1]; [7]", "value": "5 (2-8)"}, {"measurement": "Number of analgesic interventions, median (IQR)", "setting": "[1]; [7]", "value": "1 (0-1)"}, {"measurement": "Post-operative morphine, mean ± SD", "setting": "[1]; [7]", "value": "0.10 ± 0.05", "unit": "mg/Kf"}, {"measurement": "Prolonged PACU stay due to pain, number of cases (%)", "setting": "[1]; [7]", "value": "22 (35)"}, {"measurement": "Analgesic intervention need in PACU, number of cases (%)", "setting": "[1]; [8]", "value": "5 (83)"}, {"measurement": "Maximum FLACC pain score, median (IQR)", "setting": "[1]; [8]", "value": "3 (1-5)"}, {"measurement": "Maximum NRS pain score, median (IQR)", "setting": "[1]; [8]", "value": "6 (5-9)"}, {"measurement": "Number of analgesic interventions, median (IQR)", "setting": "[1]; [8]", "value": "1 (1-2)"}, {"measurement": "Post-operative morphine, mean ± SD", "setting": "[1]; [8]", "value": "0.07 ± 0.04", "unit": "mg/Kf"}, {"measurement": "Prolonged PACU stay due to pain, number of cases (%)", "setting": "[1]; [8]", "value": "2 (33)"}, {"measurement": "sex-specific morphine effects on analgesic outcomes", "setting": "[1]; univariate or multivariate modeling", "value": "no evidence of sex-specific morphine effects"}, {"measurement": "median of maximum FLACC scores", "setting": "[2]", "value": 3}, {"measurement": "patients who needed analgesic intervention(s)", "setting": "[2]", "value": 62, "unit": "%"}]}
